Assay [1] concerns the target Receptor-type tyrosine-protein kinase FLT3 (Homo sapiens) (UniProt P36888). Nature of the assay: Inhibition of human FLT3 catalytic domain expressed in baculovirus assessed as substrate phosphorylation using fluorescence-labelled peptides as substrate at 0.2 uM after 90 mins by microfluidic peptide phosphorylation assay.
Assay [2] has as its target Tyrosine-protein kinase Lyn (Homo sapiens) (UniProt P07948). Conditions: 0.1 uM.
Description: Inhibition of human full length LYN expressed in baculovirus assessed as substrate phosphorylation using fluorescence-labelled peptides as substrate at 0.1 uM after 90 mins by microfluidic peptide phosphorylation assay
The target in assay [3] is T1, Serine/threonine-protein kinase BRSK1 (Homo sapiens) (UniProt Q8TDC3).
T1 sequence (whole entry): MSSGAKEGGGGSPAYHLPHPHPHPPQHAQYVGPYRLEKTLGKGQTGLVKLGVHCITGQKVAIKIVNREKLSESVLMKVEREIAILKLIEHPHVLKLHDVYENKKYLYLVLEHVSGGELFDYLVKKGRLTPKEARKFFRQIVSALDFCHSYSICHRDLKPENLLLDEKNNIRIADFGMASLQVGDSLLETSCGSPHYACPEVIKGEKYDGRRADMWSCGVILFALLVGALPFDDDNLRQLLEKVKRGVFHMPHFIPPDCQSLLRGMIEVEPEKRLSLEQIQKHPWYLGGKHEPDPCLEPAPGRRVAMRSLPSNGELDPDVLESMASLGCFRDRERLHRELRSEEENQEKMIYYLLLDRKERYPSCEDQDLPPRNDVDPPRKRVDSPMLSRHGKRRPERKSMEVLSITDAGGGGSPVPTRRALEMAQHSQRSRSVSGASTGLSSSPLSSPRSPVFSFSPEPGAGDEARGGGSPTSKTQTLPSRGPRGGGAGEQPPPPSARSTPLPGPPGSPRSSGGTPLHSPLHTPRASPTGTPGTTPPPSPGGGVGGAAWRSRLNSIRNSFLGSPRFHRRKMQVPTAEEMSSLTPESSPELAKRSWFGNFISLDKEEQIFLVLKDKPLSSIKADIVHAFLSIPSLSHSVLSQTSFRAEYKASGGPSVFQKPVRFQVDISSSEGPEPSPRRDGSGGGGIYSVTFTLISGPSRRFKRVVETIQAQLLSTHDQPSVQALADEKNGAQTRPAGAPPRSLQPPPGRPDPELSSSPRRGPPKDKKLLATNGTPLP
Nature of the assay: Inhibition of human full length BRSK1 expressed in baculovirus assessed as substrate phosphorylation using fluorescence-labelled peptides as substrate at 8 uM after 90 mins by microfluidic peptide phosphorylation assay.

Assay [4] addresses T2, Calcium/calmodulin-dependent protein kinase type IV (Homo sapiens) (UniProt Q16566).
T2 sequence (whole entry): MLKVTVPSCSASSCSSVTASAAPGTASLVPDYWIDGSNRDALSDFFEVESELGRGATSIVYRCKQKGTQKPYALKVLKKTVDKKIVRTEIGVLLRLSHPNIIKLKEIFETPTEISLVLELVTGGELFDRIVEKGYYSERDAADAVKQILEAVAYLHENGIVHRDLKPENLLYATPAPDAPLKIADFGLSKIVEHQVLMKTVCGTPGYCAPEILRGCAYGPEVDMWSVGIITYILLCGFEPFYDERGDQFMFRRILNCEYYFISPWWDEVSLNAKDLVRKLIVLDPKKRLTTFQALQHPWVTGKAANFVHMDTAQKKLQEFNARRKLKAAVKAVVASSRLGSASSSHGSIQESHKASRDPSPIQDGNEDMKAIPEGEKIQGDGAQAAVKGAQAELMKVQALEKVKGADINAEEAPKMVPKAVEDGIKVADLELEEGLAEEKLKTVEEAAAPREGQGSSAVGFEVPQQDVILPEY
Nature of the assay: Inhibition of human full length CAMK4 expressed in baculovirus assessed as substrate phosphorylation using fluorescence-labelled peptides as substrate at 2 uM after 90 mins by microfluidic peptide phosphorylation assay.

Assay [5] deals with T3, MAP kinase-activated protein kinase 5 (Homo sapiens) (UniProt Q8IW41).
T3 sequence (whole entry): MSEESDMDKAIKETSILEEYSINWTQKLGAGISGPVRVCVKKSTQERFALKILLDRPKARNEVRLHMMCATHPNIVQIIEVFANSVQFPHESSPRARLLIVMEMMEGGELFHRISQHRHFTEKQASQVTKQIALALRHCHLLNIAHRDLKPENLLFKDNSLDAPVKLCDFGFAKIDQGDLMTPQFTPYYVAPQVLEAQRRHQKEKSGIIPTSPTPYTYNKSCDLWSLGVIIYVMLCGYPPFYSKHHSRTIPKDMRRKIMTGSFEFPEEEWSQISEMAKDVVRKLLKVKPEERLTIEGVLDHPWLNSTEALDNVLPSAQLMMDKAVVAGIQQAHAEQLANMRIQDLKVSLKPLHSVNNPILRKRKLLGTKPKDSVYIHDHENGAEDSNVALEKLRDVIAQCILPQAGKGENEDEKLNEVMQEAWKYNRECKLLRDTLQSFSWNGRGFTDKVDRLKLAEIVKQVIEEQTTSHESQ
The assay is described as follows: Inhibition of human full length PRAK expressed in baculovirus assessed as substrate phosphorylation using fluorescence-labelled peptides as substrate at 70 uM after 90 mins by microfluidic peptide phosphorylation assay.

Assay [6] addresses Protein kinase C beta type (Homo sapiens) (UniProt P05771). Nature of the assay: Inhibition of human truncated PKC beta1 expressed in baculovirus assessed as substrate phosphorylation using fluorescence-labelled peptides as substrate at 70 uM after 90 mins by microfluidic peptide phosphorylation assay.
Assay [7] concerns the target T4, Inhibitor of nuclear factor kappa-B kinase subunit beta (Homo sapiens) (UniProt O14920).
T4 sequence (whole entry): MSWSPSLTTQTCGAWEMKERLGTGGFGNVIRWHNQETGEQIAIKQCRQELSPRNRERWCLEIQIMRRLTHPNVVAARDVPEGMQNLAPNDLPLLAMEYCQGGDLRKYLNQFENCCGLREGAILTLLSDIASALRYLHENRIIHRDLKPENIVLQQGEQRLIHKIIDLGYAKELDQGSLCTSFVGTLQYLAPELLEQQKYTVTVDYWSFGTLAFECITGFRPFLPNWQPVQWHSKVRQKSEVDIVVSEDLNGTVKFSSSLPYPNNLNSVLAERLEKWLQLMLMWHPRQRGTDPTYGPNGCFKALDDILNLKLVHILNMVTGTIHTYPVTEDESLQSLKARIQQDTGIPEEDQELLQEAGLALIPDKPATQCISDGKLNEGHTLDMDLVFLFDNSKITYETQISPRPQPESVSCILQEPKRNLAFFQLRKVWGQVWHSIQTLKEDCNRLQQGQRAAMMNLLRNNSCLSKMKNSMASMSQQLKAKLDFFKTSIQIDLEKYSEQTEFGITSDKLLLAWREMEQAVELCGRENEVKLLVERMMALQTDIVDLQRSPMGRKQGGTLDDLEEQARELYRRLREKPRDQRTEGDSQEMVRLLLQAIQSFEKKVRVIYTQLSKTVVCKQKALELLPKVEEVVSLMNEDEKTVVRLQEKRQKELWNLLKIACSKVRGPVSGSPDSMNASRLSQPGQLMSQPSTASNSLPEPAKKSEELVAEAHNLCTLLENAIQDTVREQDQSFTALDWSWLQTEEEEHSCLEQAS
Nature of the assay: Inhibition of human full length IKK beta expressed in baculovirus assessed as substrate phosphorylation using fluorescence-labelled peptides as substrate at 70 uM after 90 mins by microfluidic peptide phosphorylation assay.

Receptor-type tyrosine-protein kinase FLT3 (Homo sapiens), sequence (P36888 whole entry, the tested form may be a part): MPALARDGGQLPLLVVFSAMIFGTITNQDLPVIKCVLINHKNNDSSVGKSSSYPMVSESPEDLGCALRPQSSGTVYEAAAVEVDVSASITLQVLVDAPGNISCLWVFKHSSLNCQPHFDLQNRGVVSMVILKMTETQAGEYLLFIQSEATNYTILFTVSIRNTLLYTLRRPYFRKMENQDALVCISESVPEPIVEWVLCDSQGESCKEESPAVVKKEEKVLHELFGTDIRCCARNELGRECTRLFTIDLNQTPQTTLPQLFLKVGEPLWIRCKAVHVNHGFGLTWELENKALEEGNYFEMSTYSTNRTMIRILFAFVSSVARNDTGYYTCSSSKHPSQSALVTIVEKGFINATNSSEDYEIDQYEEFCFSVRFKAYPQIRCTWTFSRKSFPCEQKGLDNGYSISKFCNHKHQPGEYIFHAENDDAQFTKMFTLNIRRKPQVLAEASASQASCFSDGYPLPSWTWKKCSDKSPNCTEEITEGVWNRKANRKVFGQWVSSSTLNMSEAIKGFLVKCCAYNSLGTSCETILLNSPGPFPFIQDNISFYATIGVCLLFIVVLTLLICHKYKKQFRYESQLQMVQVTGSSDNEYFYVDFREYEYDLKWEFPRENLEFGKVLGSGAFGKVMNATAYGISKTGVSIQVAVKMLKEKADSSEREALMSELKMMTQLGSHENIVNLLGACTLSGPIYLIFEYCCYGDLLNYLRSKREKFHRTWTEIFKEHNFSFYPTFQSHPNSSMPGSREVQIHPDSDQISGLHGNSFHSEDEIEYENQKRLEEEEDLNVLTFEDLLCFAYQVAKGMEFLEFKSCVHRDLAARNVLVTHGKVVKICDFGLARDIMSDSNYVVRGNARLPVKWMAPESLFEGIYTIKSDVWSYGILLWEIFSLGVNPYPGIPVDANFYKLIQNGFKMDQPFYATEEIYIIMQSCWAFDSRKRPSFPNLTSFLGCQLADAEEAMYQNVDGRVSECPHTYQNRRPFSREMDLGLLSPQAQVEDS
Tyrosine-protein kinase Lyn (Homo sapiens), sequence (P07948 2-512 limits assumed): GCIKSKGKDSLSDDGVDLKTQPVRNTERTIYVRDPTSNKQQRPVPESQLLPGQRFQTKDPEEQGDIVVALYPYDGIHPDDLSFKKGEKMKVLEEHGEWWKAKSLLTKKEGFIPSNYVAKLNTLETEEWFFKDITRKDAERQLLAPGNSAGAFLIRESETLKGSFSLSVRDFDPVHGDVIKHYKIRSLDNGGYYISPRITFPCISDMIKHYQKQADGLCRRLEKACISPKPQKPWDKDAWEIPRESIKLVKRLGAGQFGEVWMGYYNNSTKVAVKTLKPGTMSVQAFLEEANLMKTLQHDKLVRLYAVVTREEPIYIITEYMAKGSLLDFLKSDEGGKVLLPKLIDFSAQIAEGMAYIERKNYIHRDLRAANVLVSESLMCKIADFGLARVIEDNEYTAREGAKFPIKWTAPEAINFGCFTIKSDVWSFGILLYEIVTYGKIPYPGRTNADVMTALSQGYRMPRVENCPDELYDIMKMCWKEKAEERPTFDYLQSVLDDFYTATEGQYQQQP
Protein kinase C beta type (Homo sapiens), sequence (P05771 2-671 limits assumed): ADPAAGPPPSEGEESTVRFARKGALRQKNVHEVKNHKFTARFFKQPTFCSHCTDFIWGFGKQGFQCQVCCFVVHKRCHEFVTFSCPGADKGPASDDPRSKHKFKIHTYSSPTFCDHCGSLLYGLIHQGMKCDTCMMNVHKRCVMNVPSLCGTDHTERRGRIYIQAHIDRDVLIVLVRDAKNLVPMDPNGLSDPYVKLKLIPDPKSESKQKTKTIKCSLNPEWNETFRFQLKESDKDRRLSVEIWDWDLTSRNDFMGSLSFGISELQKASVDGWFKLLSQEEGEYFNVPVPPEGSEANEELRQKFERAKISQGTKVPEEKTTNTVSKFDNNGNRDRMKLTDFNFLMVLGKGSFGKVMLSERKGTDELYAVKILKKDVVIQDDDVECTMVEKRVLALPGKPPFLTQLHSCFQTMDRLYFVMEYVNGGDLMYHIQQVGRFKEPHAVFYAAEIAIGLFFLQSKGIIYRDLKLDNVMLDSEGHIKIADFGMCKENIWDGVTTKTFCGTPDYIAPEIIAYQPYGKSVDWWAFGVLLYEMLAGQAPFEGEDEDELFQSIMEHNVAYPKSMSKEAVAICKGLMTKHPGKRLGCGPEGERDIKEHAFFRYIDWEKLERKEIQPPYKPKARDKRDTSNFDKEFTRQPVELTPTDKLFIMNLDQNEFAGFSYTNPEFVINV

For the compound `Clc1ccc(C2(c3ccc(-c4ncnc5[nH]cnc45)cc3)CCNCC2)cc1`, in assay [1], the inhibition stood at 7.5%.

`C[C@H](CN(C)C)Oc1nc(Nc2cc3cccc(Cl)c3cn2)cnc1C#N` had an inhibition in assay [2] of 0%.

With `NCC1CCN(c2ncnc3[nH]ccc23)CC1`, the inhibition in assay [3] worked out at 56.5%.

As to `NC1CCN(c2ncnc3[nH]ccc23)CC1`, the inhibition in assay [4] was 12%.

In the case of `CNCc1ccc(-c2ncnc3[nH]cnc23)cc1`, the inhibition is 20.5% in assay [5], 73.5% in assay [6] and 90.5% in assay [7].

Usually inhibition stands for the relative decrease from the control value, in per cent.

(Values after ChEMBL document CHEMBL3132769, “Fragment growing to retain or alter the selectivity of anchored kinase hinge-binding fragments” (Medchemcomm, 2014).)
